Legend:
Test in all cases: relative viability (nuclei count vs DMSO), 5 days (fraction); higher = more cells survive
NCI-H1651 = tested on: NCI-H1651
Outline: (§1)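 Values are medians from duplicate plates. Each reflects relative viability, defined as the nuclei count of treated wells over that of vehicle wells. Lung cancer cell lines in 1536-well plates were pin-tool dosed one day after seeding with one drug alone or with a fixed anchor-drug dose plus five library-drug doses (not always all listed) in √10 steps, then fixed, stained and imaged at 4× after 5 days.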

NCI-H1648 = tested on: NCI-H1648
Outline: as §1

NCI-H650 = tested on: NCI-H650
Outline: as §1

NCI-H838 = tested on: NCI-H838
Outline: as §1

NCI-H520 = tested on: NCI-H520
Outline: as §1

PC-3 [JPC-3] = tested on: PC-3 [JPC-3]
Outline: as §1

RERF-LC-KJ = tested on: RERF-LC-KJ
Outline: as §1

NCI-H1944 = tested on: NCI-H1944
Outline: as §1

In the case of `Nc1ccn([C@@H]2O[C@H](CO)[C@@H](O)[C@@H]2O)c(=O)n1` [Cytarabine] + Nc1nc2[nH]cc(CCc3ccc(C(=O)N[C@@H](CCC(=O)O)C(=O)O)cc3)c2c(=O)[nH]1 [Pemetrexed] (partner 0.2 µM), the relative viability (NCI-H1651; first compound 0.005 µM) is reported as 0.479, the relative viability (NCI-H1651; first compound 0.01581 µM) is reported as 0.569 and the relative viability (NCI-H1651; first compound 0.05 µM) is reported as 0.223. It also gave a relative viability (NCI-H1651; first compound 0.1581 µM) of 0.451, a relative viability (NCI-H1651; first compound 0.5 µM) of 0.221 and a relative viability (NCI-H1648; first compound 0.005 µM) of 0.563. The relative viability (NCI-H1648; first compound 0.01581 µM) was 0.733, the relative viability (NCI-H1648; first compound 0.05 µM) was 0.838 and the relative viability (NCI-H1648; first compound 0.1581 µM) was 0.653. The relative viability (NCI-H1648; first compound 0.5 µM) was 0.515, the relative viability (NCI-H650; first compound 0.005 µM) was 0.809 and the relative viability (NCI-H650; first compound 0.01581 µM) was 0.581. The relative viability (NCI-H650; first compound 0.05 µM) was 0.283, the relative viability (NCI-H650; first compound 0.1581 µM) was 0.171 and the relative viability (NCI-H650; first compound 0.5 µM) was 0.157. It also gave a relative viability (NCI-H838; first compound 0.005 µM) of 0.243, a relative viability (NCI-H838; first compound 0.01581 µM) of 0.235 and a relative viability (NCI-H838; first compound 0.05 µM) of 0.272. For the same compound, the relative viability (NCI-H838; first compound 0.1581 µM) was 0.216, the relative viability (NCI-H838; first compound 0.5 µM) was 0.213 and the relative viability (NCI-H520; first compound 0.005 µM) was 0.605. The relative viability (NCI-H520; first compound 0.01581 µM) was 0.65, the relative viability (NCI-H520; first compound 0.05 µM) was 0.639 and the relative viability (NCI-H520; first compound 0.1581 µM) was 0.528. It also gave a relative viability (NCI-H520; first compound 0.5 µM) of 0.398, a relative viability (PC-3 [JPC-3]; first compound 0.005 µM) of 1 and a relative viability (PC-3 [JPC-3]; first compound 0.01581 µM) of 0.914. For the same compound, the relative viability (PC-3 [JPC-3]; first compound 0.05 µM) was 0.616, the relative viability (PC-3 [JPC-3]; first compound 0.1581 µM) was 0.557 and the relative viability (PC-3 [JPC-3]; first compound 0.5 µM) was 0.716. For the same compound, the relative viability (RERF-LC-KJ; first compound 0.005 µM) was 0.453, the relative viability (RERF-LC-KJ; first compound 0.01581 µM) was 0.502 and the relative viability (RERF-LC-KJ; first compound 0.05 µM) was 0.381. The relative viability (RERF-LC-KJ; first compound 0.1581 µM) was 0.34, the relative viability (RERF-LC-KJ; first compound 0.5 µM) was 0.249 and the relative viability (NCI-H1944; first compound 0.005 µM) was 0.505. It also gave a relative viability (NCI-H1944; first compound 0.01581 µM) of 0.312, a relative viability (NCI-H1944; first compound 0.05 µM) of 0.241 and a relative viability (NCI-H1944; first compound 0.1581 µM) of 0.14. The relative viability (NCI-H1944; first compound 0.5 µM) was 0.116.
In the case of `CC(=O)O[C@@]12CO[C@@H]1C[C@H](O)[C@@]1(C)C(=O)[C@H](O)C3=C(C)[C@@H](OC(=O)[C@H](O)[C@@H](NC(=O)OC(C)(C)C)c4ccccc4)C[C@@](O)([C@@H](OC(=O)c4ccccc4)[C@H]21)C3(C)C` [Docetaxel] + CC(=O)Nc1cccc(-n2c(=O)n(C3CC3)c(=O)c3c(Nc4ccc(I)cc4F)n(C)c(=O)c(C)c32)c1 [Trametinib] (partner 0.02 µM), the relative viability (NCI-H1651; first compound 0.0002 µM) is reported as 0.843, the relative viability (NCI-H1651; first compound 0.000632 µM) is reported as 0.83 and the relative viability (NCI-H1651; first compound 0.002 µM) is reported as 0.586. For the same compound, the relative viability (NCI-H1651; first compound 0.006325 µM) was 0.268, the relative viability (NCI-H1648; first compound 0.0002 µM) was 0.435 and the relative viability (NCI-H1648; first compound 0.000632 µM) was 0.456. For the same compound, the relative viability (NCI-H1648; first compound 0.002 µM) was 0.367, the relative viability (NCI-H1648; first compound 0.006325 µM) was 0.288 and the relative viability (NCI-H1648; first compound 0.02 µM) was 0.193. The relative viability (NCI-H650; first compound 0.0002 µM) was 0.932, the relative viability (NCI-H650; first compound 0.000632 µM) was 0.644 and the relative viability (NCI-H650; first compound 0.002 µM) was 0.318. For the same compound, the relative viability (NCI-H650; first compound 0.006325 µM) was 0.295, the relative viability (NCI-H650; first compound 0.02 µM) was 0.16 and the relative viability (NCI-H838; first compound 0.0002 µM) was 0.456. It also gave a relative viability (NCI-H838; first compound 0.000632 µM) of 0.638, a relative viability (NCI-H838; first compound 0.002 µM) of 0.183 and a relative viability (NCI-H838; first compound 0.006325 µM) of 0.141. The relative viability (NCI-H838; first compound 0.02 µM) was 0.0997, the relative viability (NCI-H520; first compound 0.0002 µM) was 0.565 and the relative viability (NCI-H520; first compound 0.000632 µM) was 0.711. For the same compound, the relative viability (NCI-H520; first compound 0.002 µM) was 0.243, the relative viability (NCI-H520; first compound 0.006325 µM) was 0.206 and the relative viability (NCI-H520; first compound 0.02 µM) was 0.119. The relative viability (PC-3 [JPC-3]; first compound 0.0002 µM) was 0.684, the relative viability (PC-3 [JPC-3]; first compound 0.000632 µM) was 0.701 and the relative viability (PC-3 [JPC-3]; first compound 0.002 µM) was 0.604. For the same compound, the relative viability (PC-3 [JPC-3]; first compound 0.006325 µM) was 0.431, the relative viability (PC-3 [JPC-3]; first compound 0.02 µM) was 0.279 and the relative viability (RERF-LC-KJ; first compound 0.0002 µM) was 0.767. It also gave a relative viability (RERF-LC-KJ; first compound 0.000632 µM) of 0.816, a relative viability (RERF-LC-KJ; first compound 0.002 µM) of 0.39 and a relative viability (RERF-LC-KJ; first compound 0.006325 µM) of 0.217. For the same compound, the relative viability (RERF-LC-KJ; first compound 0.02 µM) was 0.142, the relative viability (NCI-H1944; first compound 0.0002 µM) was 0.387 and the relative viability (NCI-H1944; first compound 0.000632 µM) was 0.371. The relative viability (NCI-H1944; first compound 0.002 µM) was 0.294, the relative viability (NCI-H1944; first compound 0.006325 µM) was 0.241 and the relative viability (NCI-H1944; first compound 0.02 µM) was 0.118.
With `CC(=O)O[C@@]12CO[C@@H]1C[C@H](O)[C@@]1(C)C(=O)[C@H](O)C3=C(C)[C@@H](OC(=O)[C@H](O)[C@@H](NC(=O)OC(C)(C)C)c4ccccc4)C[C@@](O)([C@@H](OC(=O)c4ccccc4)[C@H]21)C3(C)C` [Docetaxel] + CC(=O)c1c(C)c2cnc(Nc3ccc(N4CCNCC4)cn3)nc2n(C2CCCC2)c1=O [Palbociclib] (partner 0.5 µM) the relative viability (NCI-H1651; first compound 0.0002 µM) was 0.478, the relative viability (NCI-H1651; first compound 0.000632 µM) was 0.543 and the relative viability (NCI-H1651; first compound 0.002 µM) was 0.373. It also gave a relative viability (NCI-H1651; first compound 0.006325 µM) of 0.212, a relative viability (NCI-H1648; first compound 0.0002 µM) of 0.265 and a relative viability (NCI-H1648; first compound 0.000632 µM) of 0.26. It also gave a relative viability (NCI-H1648; first compound 0.002 µM) of 0.271, a relative viability (NCI-H1648; first compound 0.006325 µM) of 0.249 and a relative viability (NCI-H1648; first compound 0.02 µM) of 0.247. For the same compound, the relative viability (NCI-H650; first compound 0.0002 µM) was 0.34, the relative viability (NCI-H650; first compound 0.000632 µM) was 0.305 and the relative viability (NCI-H650; first compound 0.002 µM) was 0.222. It also gave a relative viability (NCI-H650; first compound 0.006325 µM) of 0.211, a relative viability (NCI-H650; first compound 0.02 µM) of 0.193 and a relative viability (NCI-H838; first compound 0.0002 µM) of 0.223. It also gave a relative viability (NCI-H838; first compound 0.000632 µM) of 0.251, a relative viability (NCI-H838; first compound 0.002 µM) of 0.209 and a relative viability (NCI-H838; first compound 0.006325 µM) of 0.176. For the same compound, the relative viability (NCI-H838; first compound 0.02 µM) was 0.133, the relative viability (NCI-H520; first compound 0.0002 µM) was 0.192 and the relative viability (NCI-H520; first compound 0.000632 µM) was 0.253. For the same compound, the relative viability (NCI-H520; first compound 0.002 µM) was 0.209, the relative viability (NCI-H520; first compound 0.006325 µM) was 0.189 and the relative viability (NCI-H520; first compound 0.02 µM) was 0.122. The relative viability (PC-3 [JPC-3]; first compound 0.0002 µM) was 0.55, the relative viability (PC-3 [JPC-3]; first compound 0.000632 µM) was 0.559 and the relative viability (PC-3 [JPC-3]; first compound 0.002 µM) was 0.573. The relative viability (PC-3 [JPC-3]; first compound 0.006325 µM) was 0.469, the relative viability (PC-3 [JPC-3]; first compound 0.02 µM) was 0.422 and the relative viability (RERF-LC-KJ; first compound 0.0002 µM) was 1.02. For the same compound, the relative viability (RERF-LC-KJ; first compound 0.000632 µM) was 1.37, the relative viability (RERF-LC-KJ; first compound 0.002 µM) was 0.381 and the relative viability (RERF-LC-KJ; first compound 0.006325 µM) was 0.249. It also gave a relative viability (RERF-LC-KJ; first compound 0.02 µM) of 0.165, a relative viability (NCI-H1944; first compound 0.0002 µM) of 0.359 and a relative viability (NCI-H1944; first compound 0.000632 µM) of 0.268. It also gave a relative viability (NCI-H1944; first compound 0.002 µM) of 0.314, a relative viability (NCI-H1944; first compound 0.006325 µM) of 0.22 and a relative viability (NCI-H1944; first compound 0.02 µM) of 0.14.

Reference: the supplement of paper PMC10307832
